Molecules are shown by their SMILES. “And” between values parts separate entries of the source, which are not always exact repeats. Equal entries are not always repeated.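 Cells were grown in 96-well plates and exposed to each compound for 48 hours at five concentrations; endpoints were interpolated linearly between bracketing concentrations, or set to the highest concentration if not reached. GI50 is the concentration that inhibits growth by half. The concentration for full growth arrest is given as TGI.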

Experiment in all cases: NCI tumour cell line growth inhibition, 48 h
Test [1] deals with BT-549 breast.
The test system of test [2] is HCT-15 colon.
Test [3] deals with RXF 393 renal.
For test [4], the system named is NCI-H522 lung.
Test [5] deals with COLO 205 colon.
Test [6] deals with HCC-2998 colon.
Test [7] relates to MDA-MB-231 breast.
Test [8] deals with SK-MEL-5 melanoma.
Test [9] relates to SW-620 colon.
Test [10] has as its system NCI/ADR-RES ovarian.
The subject of test [11] is SNB-75 CNS.

For `CCCCCCCCCCCCC1N=C(N)NC2(CCCO2)C1C(=O)OC` (stereo not drawn), the TGI is 18.5 µM in [1]; 42.9 µM in test [2]; 6.12 µM in test [3]; 9.7 µM in test [4]; 10.9 µM in test [5]; over 39.5 µM in test [6]. For the same compound, the TGI in [7] came to 13.3 µM; in test [8], 23.7 µM; in [9] it was 7.65 µM; in test [10], 42.9 µM; in [11], 7.99 µM.
In the case of `Clc1cc2ncn(C3CCCCO3)c2cc1Cl` (stereo not drawn), the TGI was 84.5 µM in [1]; over 100 µM in [2]; over 100 µM in test [3]; 59.2 µM in test [4]; over 100 µM in [5]; over 100 µM in test [6]. Further, the TGI was over 100 µM in [7]; over 100 µM in [8]; over 100 µM in [9]; over 100 µM in [10]; 53.9 µM in [11].
`CCCCCCCc1ccc(-c2nnc(N=Nc3ccc(OCCCCC)cc3)s2)s1`: the TGI in [1], in test [2], in test [3], in test [4], in [5] and in test [6] was over 100 µM in each case. Also, the TGI in test [7], in test [8], in test [9], in test [10] and in test [11] was over 100 µM throughout.
As to `CC(=O)C(C(C)=O)[C@H]1OC(C)(C)O[C@H]1[C@H]1COC(C)(C)O1`, the TGI in test [1] is 90.5 µM; in test [2], over 100 µM; in test [3], over 100 µM; in test [4], 93.3 µM; in test [5], 32.5 µM; in test [6], 86 µM. Further, the TGI in test [7] was 89 µM; in test [8], over 100 µM; in [9] it was over 100 µM; in test [10], over 100 µM; in [11] it was over 100 µM.
Consider `O=C(NCc1ccccc1Cl)c1c(O)c2ccccc2[nH]c1=O`, for which the TGI in test [1] is over 100 µM; in [2], over 100 µM; in [3] it was 63.1 µM; in test [4] it was over 100 µM; in [5], over 100 µM; in [6] it was over 100 µM. For the same compound, the TGI in [7] is 45.3 µM; in [8], over 100 µM; in test [9], 64.3 µM; in [10], 56.6 µM; in test [11], 52.2 µM.
As for `CC[C@@]1(O)C(=O)OCc2c1cc1n(c2=O)Cc2c-1nc1ccccc1c2C=Nc1ccccc1N[C@@H]1c2cc3c(cc2[C@@H](c2cc(OC)c(O)c(OC)c2)[C@H]2C(=O)OC[C@@H]21)OCO3`, the TGI in [1] was over 50 µM; in test [3], 5.02 µM and 0.54 µM; in [5], 24.8 µM and > 10.6 µM; in test [6], 24.6 µM; in test [7], over 49.8 µM; in test [9] it was over 100 µM. Moreover, the TGI in [10] is 2.88 µM and 2.78 µM; in test [11], 5.48 µM and 0.647 µM. For the same compound, the GI50 in test [2] was 0.88 µM and 0.19 µM; in [3], 0.317 µM and 0.0619 µM; in test [4], 0.072 µM and 0.192 µM; in [5], 8.86 µM and 0.929 µM; in [6], 10.3 µM; in test [7], 7.04 µM. Further, the GI50 in [10] was 0.0689 µM and 0.24 µM.
In the case of `COC(=O)c1ccccc1C1CN=NC12Cc1c(C)ccc(C)c1C2=O` (stereo not drawn), the TGI in test [1], in test [2], in test [3], in test [4], in test [5] and in test [6] was over 100 µM in each case. The TGI in test [7], in test [8], in [9], in test [10] and in test [11] was over 100 µM in each case.
As for `CCCCCCCCCCCCC1N=C(N)N2CCCC2=C1C(=O)OC` (stereo not drawn), the TGI in [1] amounted to 35 µM; in test [2], 3.11 µM; in [3], 69.4 µM; in test [4], 3.26 µM; in test [5], 4.17 µM; in [6], 3.25 µM. For the same compound, the TGI turned out to be 4.38 µM in test [7]; 4.88 µM in [8]; 3.05 µM in test [9]; 20.4 µM in test [10]; 3.05 µM in [11].
As to `Cc1ccc(-n2cc(-c3ccc(Cl)cc3)c3c(=N)n(N)cnc32)cc1`, the TGI in test [1] was found to be 31.7 µM; in [2], 28.9 µM; in [3], 15.7 µM; in test [4], 28 µM; in [5], 20.7 µM; in test [6], 19.2 µM. For the same compound, the TGI in test [7] was determined as 25.3 µM; in test [8], 20.1 µM; in test [9], 25.1 µM; in test [10], 26.8 µM; in [11] it was 25.9 µM.
For the compound `S=c1[nH]n2c(COc3cc(Cl)c(OCc4nnc5sc(=S)[nH]n45)cc3Cl)nnc2s1`, the TGI is over 100 µM in [1]; over 100 µM in [2]; over 100 µM in test [3]; 53.9 µM in test [4]; over 100 µM in test [5]; over 100 µM in test [6]. The TGI in test [7], in [8], in [9], in test [10] and in [11] was over 100 µM throughout.
On to `Oc1ccc(SCc2cc(O)ccc2O)cc1`, for which the TGI in test [1] was 16.5 µM; in [2], 30.8 µM; in test [3] it was 25.5 µM; in test [4] it was 4.88 µM; in test [5], 38.8 µM; in test [6] it was over 68.9 µM. The TGI was 36.4 µM in test [7]; 22.5 µM in test [8]; over 62.8 µM in [9]; over 57.5 µM in test [10]; over 65.9 µM in test [11].
Take `CCC1CN2CCc3c([nH]c4ccccc34)[C@@](C(=O)OC)(c3cc4c(cc3OC)N(C)C3C(O)(C(=O)OC)C(C(=O)OC)C5(CC)C=CCN6CCC43C65)C[C@@H](C2)[C@@H]1C(C)(C)C` (stereo partly drawn): the TGI in test [1] is over 8.68 µM; in [2] it was 2.82 µM; in test [3], over 10 µM; in test [4] it was 3.56 µM; in test [5], over 6.1 µM; in [6], 1.52 µM. For the same compound, the TGI in test [7] was 3.42 µM; in test [8] it was 1.25 µM; in test [9] it was over 10 µM; in [10], over 7.23 µM; in test [11], over 10 µM.
`Cc1cc2occ(S(=O)(=O)NC(=O)Nc3ccc(Cl)cc3)c(=O)c2c(=O)o1`: the TGI in [1], in [2], in test [3], in test [4], in test [5] and in test [6] was over 100 µM in each case. The TGI in [7], in [8], in [9], in test [10] and in [11] was over 100 µM in each case.
In the case of `c1ccc(Nc2nnc(CCCCCCCCc3nnc(Nc4ccccc4)o3)o2)cc1`, the TGI in test [1], in [2], in [3], in test [4], in test [5] and in test [6] was over 100 µM throughout. Moreover, the TGI in [7], in test [8], in test [9], in test [10] and in [11] was over 100 µM in each case.
Consider `O=C1C2CC[C@@H]3C(=O)C(Cl)(Cl)[C@@H]3CCC2C1(Cl)Cl` (stereo partly drawn), for which the TGI in test [1], in test [2], in test [3], in test [4], in [5] and in test [6] was over 100 µM in each case. For the same compound, the TGI in test [7], in [8], in test [9], in test [10] and in [11] was over 100 µM throughout.
Turning to `CC(NNC(=O)c1ccncc1)c1ccc(Cl)cc1Cl` (stereo not drawn), the TGI in test [1], in test [2], in [3], in [4], in test [5] and in [6] was over 100 µM each time. The TGI in test [7], in test [8], in test [9], in test [10] and in test [11] was over 100 µM throughout.
As to `CC[C@]1(Cc2ccc(OC)c(OC)c2)C=[N+]([O-])O[C@H](OC2CCCC2(c2ccccc2)c2ccccc2)[C@@H]1OC(=O)C(C)(C)C` (stereo partly drawn), the TGI is over 44.5 µM in test [1]; 8.97 µM in [2]; 3.53 µM in test [3]; 4.99 µM in [4]; 7.78 µM in test [5]; 3.71 µM in test [6]. Moreover, the TGI was over 33 µM in test [7]; 4.09 µM in test [8]; over 100 µM in [9]; 5.58 µM in test [10]; 13.4 µM in test [11].
In the case of `O=C1C=C/C(=C/[C@H]2SSC=C[C@]23C=CC(=O)C3)C1`, the TGI was 46.8 µM in test [1]; 48.2 µM in [2]; 29.9 µM in test [3]; 27.7 µM in test [4]; 53 µM in test [5]; 44.7 µM in [6]. Further, the TGI is over 83.1 µM in [7]; 38.9 µM in [8]; over 51.5 µM in test [9]; 68.1 µM in test [10]; over 100 µM in [11].
Take `CC(=O)N1c2cc(N=NN(C)C)ccc2NC(=O)CC1C` (stereo not drawn): the TGI in test [1], in test [2], in test [3], in test [4], in test [5] and in test [6] was over 100 µM each time. For the same compound, the TGI in test [7], in test [8], in test [9], in [10] and in test [11] was over 100 µM in each case.
As to `Cc1cc(C)nc(NS(=O)(=O)c2ccc(Nc3c4ccccc4nc4ccc(C(=O)Nc5ccc(S(=O)(=O)N=C(N)N)cc5)cc34)cc2)n1`, the TGI is 95.2 µM in test [1]; over 100 µM in [2]; over 100 µM in [3]; over 100 µM in test [4]; over 100 µM in [5]; over 100 µM in test [6]. In addition, the TGI in test [7], in [8], in test [9], in test [10] and in [11] was over 100 µM throughout.
`C=CCN1C(=O)CC(=O)N(NC2=NNC3(C(=O)N2)c2ccccc2-c2ccccc23)C1=S`: the TGI in [1] was over 100 µM; in [2], over 100 µM; in test [3], over 100 µM; in test [4], 96.3 µM; in [5], 45 µM; in test [6] it was over 100 µM. Also, the TGI in test [7], in [8], in test [9], in test [10] and in test [11] was over 100 µM each time.
With `O=C(O)CCC1NC(/C(=C/c2ccccc2O)NC(=O)c2ccccc2)OC1=O` (stereo not drawn), the TGI in test [1], in [2], in test [3], in test [4], in test [5] and in test [6] was over 100 µM throughout. Besides, the TGI is over 100 µM in [7]; over 100 µM in test [8]; over 100 µM in [9]; over 100 µM in [10]; 72.4 µM in test [11].
Take `CC(=O)NN(c1ccccc1)C1CCN(c2ccccc2)N1C(C)=O` (stereo not drawn): the TGI in test [1], in test [2], in [3], in test [4], in test [5] and in test [6] was over 10 µM throughout. The TGI in test [7], in test [8], in test [9], in test [10] and in test [11] was over 10 µM each time.
With `COc1ccc(N=Nc2c(N)nn3c(SC)c(C#N)c(N)nc23)cc1`, the TGI in test [1] amounted to 49.6 µM; in test [2] it was 26.4 µM; in test [3], 19.5 µM; in [4], 36.8 µM; in test [5], 26.4 µM; in [6], 16.7 µM. Further, the TGI is 7.02 µM in [7]; 34.7 µM in test [8]; 22.8 µM in [9]; 49.8 µM in test [10]; 40.6 µM in test [11].

For the origin of these results see PubChem BioAssay (NCI).
